Data taken from patent publication US20040121946A9, “Inducing cellular immune responses to her2/neu using peptide and nucleic acid compositions” (priority 2002, published 2004).
Where no end group is shown, it is not given here.

Columns and labels:
[1] = biological target: DRB1*1302 (DR6w19) (Homo sapiens, UniProt P01903+P01911, A100E/A169T/K41T/L162R/M171V/P40S/Q125H/Q178H/Q39Y/Q99D/R42S/S66N/T262R/V115G/W38E/Y61H); assay: HLA class II peptide binding assay, purified HLA; details: Table XXIX; read-out: DR6w19 nM
[2] = test system: HLA-DR molecules (DR1, DR4w4, DR7, DRB5*0101, DRB1*1501, DRB1*1101, DRB1*0802, DRB1*1302); assay: DR supertype cross-reactive binding; parameters: species or system human; details: for DR147 Cross-binding: Table XXVIII
[3] = biological target: DRB1*0401 (DR4w4) (Homo sapiens, UniProt P01903+P01911, A100K/A169T/F76Y/I96L/K127E/L162R/M171V/N62H/P40V/Q125Y/R42H/S133A/S149N/S66Y/V115G/V209L/W38E); assay: HLA class II peptide binding assay, purified HLA; details: unit not given
[4] = biological target: DRB1*0101 (DR1) (Homo sapiens, UniProt P01903+P01911, A100R/D57E/F55L/F60I/F76Y/I96L/L162R/M171V/P40L/Q125E/R42F/V115G/Y59C); assay: HLA class II peptide binding assay, purified HLA; details: unit not given
[5] = biological target: DRB1*0701 (DR7) (Homo sapiens, UniProt P01903+P01911, A100R/A102G/A103Q/D57E/D86V/E43K/F76Y/K127E/L162R/M171V/P40G/Q125H/Q99D/R33Q/R42Y/R54Q/S133A/S66F/T210M/V115G/Y107V/Y59L/Y89S); assay: HLA class II peptide binding assay, purified HLA; details: unit not given
[6] = biological target: DRB1*1101 (DR5w11) (Homo sapiens, UniProt P01903+P01911, A100R/A169T/A87E/I96F/K41T/L162R/M171V/P40S/Q125H/Q178H/Q39Y/Q99D/R42S/S66Y/T262R/V115G/W38E); assay: HLA class II peptide binding assay, purified HLA; details: Table XXa, DR 3a motif peptides; unit not given
[7] = number of DR1, DR4w4, DR7 bound
[8] = Table XIX, DR supermotif peptides
[9] = Table XXa, DR 3a motif peptides

Molecule | IC50 [1] [nM] | DR147 Binding ([2]; number of DR1, DR4w4, DR7 bound, Table XXIX) | DR147 Cross-binding [2, 7] | Broad Binding (5/8) ([2]; number of the 8 DR alleles bound) | DR4w4 binding data [3, 8] | DR1 binding data [4, 8] | DR7 binding data [5, 8] | DR5w11 binding data [6] | DR4w4 binding data [3, 9] | DR1 binding data [4, 9] | DR7 binding data [5, 9]
CC(C)C[C@H](NC(=O)[C@H](CCC(=O)O)NC(=O)[C@@H](NC(=O)[C@@H](N)CCC(=O)O)[C@@H](C)O)C(=O)N[C@@H](CCCNC(=N)N)C(=O)N[C@@H](CCCCN)C(=O)N[C@H](C(=O)N[C@@H](CCCCN)C(=O)N[C@H](C(=O)N[C@@H](CC(C)C)C(=O)NCC(=O)N[C@@H](CO)C(=O)NCC(=O)N[C@@H](C)C(=O)N[C@@H](Cc1ccccc1)C(=O)O)C(C)C)C(C)C | 2500 | 2 | 2 | 2 |  |  |  |  |  |  | 
LTSHSAVVGILLVV |  |  |  |  | −0.0025 | 0.1900 | 0.0049 |  |  |  | 
CC[C@H](C)[C@H](NC(=O)[C@H](CC(C)C)NC(=O)[C@H](C)NC(=O)[C@H](CC(C)C)NC(=O)CNC(=O)[C@H](CO)NC(=O)CNC(=O)[C@H](CC(C)C)NC(=O)[C@H](CCC(=O)O)NC(=O)[C@H](CCCNC(=N)N)NC(=O)[C@@H](N)CC(C)C)C(=O)N[C@@H](Cc1c[nH]cn1)C(=O)N[C@@H](Cc1c[nH]cn1)C(=O)N[C@@H](CC(N)=O)C(=O)N[C@H](C(=O)O)[C@@H](C)O |  |  | 1 |  | −0.0025 | 0.0310 | −0.0013 |  |  |  | 
ETELVEPLTPSGAMP |  |  | 1 |  | −0.0025 | 0.0060 | −0.0013 |  |  |  | 
CC[C@H](C)[C@H](NC(=O)[C@H](CC(C)C)NC(=O)[C@H](C)NC(=O)[C@@H](N)CC(C)C)C(=O)N[C@@H](Cc1c[nH]cn1)C(=O)N[C@@H](Cc1c[nH]cn1)C(=O)N[C@@H](CC(N)=O)C(=O)N[C@H](C(=O)N[C@@H](Cc1c[nH]cn1)C(=O)N[C@@H](CC(C)C)C(=O)N[C@@H](CS)C(=O)N[C@@H](Cc1ccccc1)C(=O)N[C@H](C(=O)N[C@@H](Cc1c[nH]cn1)C(=O)N[C@H](C(=O)O)[C@@H](C)O)C(C)C)[C@@H](C)O |  |  |  |  |  |  |  | 0.0025 |  |  | 
TDGYVAPLTCSPQPE |  |  | 0 |  | −0.0032 | −0.0005 | −0.0011 |  |  |  | 
DMKLRLPASPETHLD |  |  | 0 |  | −0.0025 | 0.0010 | −0.0013 |  |  |  | 
CC(C)C[C@H](NC(=O)[C@H](C)NC(=O)[C@H](Cc1ccc(O)cc1)NC(=O)[C@H](CC(N)=O)NC(=O)[C@H](CC(=O)O)NC(=O)[C@H](CCC(=O)O)NC(=O)[C@H](Cc1ccccc1)NC(=O)[C@H](CC(C)C)NC(=O)[C@H](CCC(N)=O)NC(=O)[C@@H](N)[C@@H](C)O)C(=O)N[C@@H](C)C(=O)N[C@H](C(=O)N[C@@H](CC(C)C)C(=O)N[C@@H](CC(=O)O)C(=O)N[C@@H](CC(N)=O)C(=O)O)C(C)C |  |  | 1 |  | −0.0025 | 0.0530 | 0.0160 |  |  |  | 
CC[C@H](C)[C@H](NC(=O)[C@H](CCC(=O)O)NC(=O)[C@@H](N)CCCCN)C(=O)N[C@@H](CC(C)C)C(=O)N[C@@H](CC(=O)O)C(=O)N[C@@H](CCC(=O)O)C(=O)N[C@@H](C)C(=O)N[C@@H](Cc1ccc(O)cc1)C(=O)N[C@H](C(=O)N[C@@H](CCSC)C(=O)N[C@@H](C)C(=O)NCC(=O)N[C@H](C(=O)NCC(=O)N[C@@H](CO)C(=O)O)C(C)C)C(C)C |  |  | 0 |  | 0.0073 | 0.0036 | −0.0011 |  |  |  | 
QGFFCPDPAPGAGGM |  |  | 0 |  | 0.0230 | −0.0005 | −0.0011 |  | 0.0230 | −0.0005 | −0.0011
PSTFKGTPTAENPEY |  |  | 0 |  | −0.0032 | −0.0005 | −0.0011 |  |  |  | 
QPDVRPQPPSPREGP |  |  | 0 |  | −0.0032 | 0.0007 | −0.0011 |  |  |  | 
VEPLTPSGAMPNQAQ |  |  | 0 |  | −0.0025 | −0.0008 | −0.0011 |  |  |  | 
CSCC[C@H](NC(=O)[C@H](CC(=O)O)NC(=O)[C@@H](NC(=O)CN)[C@@H](C)O)C(=O)N[C@@H](CCCCN)C(=O)N[C@@H](CC(C)C)C(=O)N[C@@H](CCCNC(=N)N)C(=O)N[C@@H](CC(C)C)C(=O)N1CCC[C@H]1C(=O)N[C@@H](C)C(=O)N[C@@H](CO)C(=O)N1CCC[C@H]1C(=O)N[C@@H](CCC(=O)O)C(=O)N[C@H](C(=O)N[C@@H](Cc1c[nH]cn1)C(=O)O)[C@@H](C)O |  |  | 0 |  | −0.0025 | 0.0010 | −0.0013 |  |  |  | 
IKVLRENTSPKANKE |  |  | 0 |  | −0.0032 | −0.0005 | −0.0011 |  |  |  | 
VVGILLVVVLGVVFG |  |  | 0 |  | −0.0025 | −0.0004 | −0.0013 |  |  |  | 
ITDFGLARLLDIDET |  |  | 0 |  | −0.0032 | 0.0048 | −0.0011 |  |  |  | 
CC[C@H](C)[C@H](NC(=O)[C@@H]1CCCN1)C(=O)N[C@@H](CCCCN)C(=O)N[C@@H](Cc1c[nH]c2ccccc12)C(=O)N[C@@H](CCSC)C(=O)N[C@@H](C)C(=O)N[C@@H](CC(C)C)C(=O)N[C@@H](CCC(=O)O)C(=O)N[C@@H](CO)C(=O)N[C@H](C(=O)N[C@@H](CC(C)C)C(=O)N[C@@H](CCCNC(=N)N)C(=O)N[C@@H](CCCNC(=N)N)C(=O)N[C@@H](CCCNC(=N)N)C(=O)N[C@@H](Cc1ccccc1)C(=O)O)[C@@H](C)CC |  |  | 1 |  | 0.0350 | 0.7900 | 0.0078 |  |  |  | 
VCPLHNQEVTAEDGT |  |  | 0 |  | −0.0025 | −0.0004 | −0.0013 |  |  |  | 
CC(C)C[C@H](NC(=O)[C@H](C)NC(=O)[C@H](CCC(N)=O)NC(=O)[C@H](Cc1c[nH]cn1)NC(=O)[C@@H]1CCCN1C(=O)[C@H](CC(N)=O)NC(=O)[C@H](CCCNC(=N)N)NC(=O)[C@H](Cc1ccccc1)NC(=O)[C@H](CC(C)C)NC(=O)[C@H](CCC(N)=O)NC(=O)[C@H](CC(=O)O)NC(=O)[C@@H](N)Cc1c[nH]c2ccccc12)C(=O)N[C@@H](CC(C)C)C(=O)N[C@@H](Cc1c[nH]cn1)C(=O)N[C@H](C(=O)O)[C@@H](C)O |  |  |  |  |  |  |  | −0.0008 | −0.0055 |  | 
LLVVVLGVVFGILIK |  |  | 0 |  | −0.0025 | −0.0008 | 0.0019 |  |  |  | 
